Results as given in patent publication US20120142685A1, “ORGANIC COMPOUNDS” (priority 2007, published 2012).
Read-outs that look alike come from different tables or passages of the source.

Tests used:
protein kinase D2 (PKD2) = molecular target: T1, protein kinase D2 (PKD2) (Homo sapiens, UniProt Q9BZL6); test: PKD2 TR-FRET (LANCE) kinase assay; type: biochemical
T1 construct: This assay is performed with full length wild-type enzyme purchase from Invitrogen; purchased Invitrogen
T1 sequence (Q9BZL6 1-878): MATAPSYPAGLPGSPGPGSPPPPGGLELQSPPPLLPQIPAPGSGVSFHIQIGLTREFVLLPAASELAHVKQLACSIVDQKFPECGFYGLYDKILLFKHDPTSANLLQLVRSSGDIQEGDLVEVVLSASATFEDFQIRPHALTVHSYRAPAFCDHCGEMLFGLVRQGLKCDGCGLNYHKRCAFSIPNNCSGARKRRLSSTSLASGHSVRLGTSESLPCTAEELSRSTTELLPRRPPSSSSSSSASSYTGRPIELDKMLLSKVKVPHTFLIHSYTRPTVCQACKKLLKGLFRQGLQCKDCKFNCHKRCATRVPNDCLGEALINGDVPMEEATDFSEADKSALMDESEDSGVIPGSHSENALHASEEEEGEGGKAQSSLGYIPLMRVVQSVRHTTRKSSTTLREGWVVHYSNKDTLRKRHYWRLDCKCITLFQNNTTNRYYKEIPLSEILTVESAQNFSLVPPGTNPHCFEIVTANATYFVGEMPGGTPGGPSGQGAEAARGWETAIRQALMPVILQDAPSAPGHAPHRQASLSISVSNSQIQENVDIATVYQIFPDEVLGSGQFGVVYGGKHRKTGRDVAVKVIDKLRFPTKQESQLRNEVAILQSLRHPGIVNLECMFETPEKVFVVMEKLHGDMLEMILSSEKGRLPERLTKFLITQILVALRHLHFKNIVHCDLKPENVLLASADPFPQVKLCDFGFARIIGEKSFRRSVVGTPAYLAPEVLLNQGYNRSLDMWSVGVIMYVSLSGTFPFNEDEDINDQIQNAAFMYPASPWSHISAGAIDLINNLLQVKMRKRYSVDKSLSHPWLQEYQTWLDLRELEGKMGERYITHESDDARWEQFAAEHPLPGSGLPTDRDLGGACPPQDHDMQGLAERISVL
Excerpt: (§1) The assay to measure protein kinase D2 (PKD2) activity is a time-resolved fluorescence resonance transfer (TR-FRET) assay using PerkinElmer's LANCE™ technology. In this case, a biotinylated syntide-2 peptide is used as the substrate in this reaction. Phosphorylation of the syntide-2 substrate is detected by a specific antibody that recognizes the phosphorylated peptide. A second fluorophore, APC, is conjugated to streptavidin that binds the biotinylated syntide-2 peptide. […] Therefore, when the europium labeled secondary antibody binds on the phosphorylated peptide, it is brought into close contact with the APC and excites this fluorophore.
(§2) This assay is performed with full length wild-type enzyme purchase from Invitrogen. The reaction buffer consists of 35 mM Tris-HCl pH7.5, 5 mM MgCl2, 0.02% Tween-20, 20 μM ATP, 1 mM DTT and 0.2 μg/mL PKD2 enzyme. The enzyme reaction is initiated by the addition of 2 μM syntide-2 peptide substrate and the reaction carried out for 50 minutes at room temperature. The reaction is stopped by a stop/detection buffer consisting of 50 mM EDTA, 0.18 mg/mL rabbit polyclonal anti-phospho syntide-2 antibody, 0.5 nM europium labeled anti-rabbit IgG and 10 nM streptavidin conjugated APC. After a one hour incubation with the stop/detection buffer, the reaction is read on an Envision 2100 Reader using a LANCE™ Eu/APC dual protocol. […] IC50 values are calculated using an Activity Base (IDBS) software program.

protein kinase D3 (PKD3) = molecular target: T2, protein kinase D3 (PKD3) (Homo sapiens, UniProt O94806); test: PKD3 TR-FRET (LANCE) kinase assay; type: biochemical; details: full length wild-type enzyme, 20 μM ATP; read-out: Inhibitory Activity PKD3
T2 construct: This assay is performed with full length wild-type enzyme that is purchased from Invitrogen; purchased Invitrogen
T2 sequence (O94806 1-890): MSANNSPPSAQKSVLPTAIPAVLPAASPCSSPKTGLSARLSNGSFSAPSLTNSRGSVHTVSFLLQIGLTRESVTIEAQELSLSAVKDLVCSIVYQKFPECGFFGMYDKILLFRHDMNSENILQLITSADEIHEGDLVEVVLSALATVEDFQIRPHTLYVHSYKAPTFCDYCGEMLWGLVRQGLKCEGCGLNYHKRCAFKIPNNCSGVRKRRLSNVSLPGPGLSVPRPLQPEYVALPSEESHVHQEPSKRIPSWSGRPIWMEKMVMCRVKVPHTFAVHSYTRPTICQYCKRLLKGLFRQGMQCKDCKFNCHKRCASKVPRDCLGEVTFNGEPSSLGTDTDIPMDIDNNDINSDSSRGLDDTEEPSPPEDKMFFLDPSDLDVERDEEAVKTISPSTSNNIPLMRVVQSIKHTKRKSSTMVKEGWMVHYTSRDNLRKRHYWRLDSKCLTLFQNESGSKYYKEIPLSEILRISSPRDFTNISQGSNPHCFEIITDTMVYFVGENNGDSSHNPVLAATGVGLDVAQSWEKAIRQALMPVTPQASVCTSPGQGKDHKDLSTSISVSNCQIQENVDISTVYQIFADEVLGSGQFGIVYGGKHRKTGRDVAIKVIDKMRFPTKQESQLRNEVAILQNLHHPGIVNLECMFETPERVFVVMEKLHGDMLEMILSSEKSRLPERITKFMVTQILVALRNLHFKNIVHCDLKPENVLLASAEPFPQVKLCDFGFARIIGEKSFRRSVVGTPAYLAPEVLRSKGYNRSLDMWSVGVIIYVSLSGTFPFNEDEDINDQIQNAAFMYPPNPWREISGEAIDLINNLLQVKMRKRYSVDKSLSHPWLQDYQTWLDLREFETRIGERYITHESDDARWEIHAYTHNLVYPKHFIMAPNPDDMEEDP
Excerpt: as §1, with “D3 (PKD3)” for “D2 (PKD2)”
as §2, with “that is purchased” for “purchase”, “PKD3” for “PKD2”, “LANCET™” for “LANCE™”

[1] = full length wild-type enzyme, 20 μM ATP, read-out: Inhibitory Activity PKD2

| Compound | IC50 (protein kinase D2 (PKD2); [1]) [nM] | IC50 (protein kinase D3 (PKD3)) [nM] | IC50 (protein kinase D2 (PKD2)) [nM] |
| --- | --- | --- | --- |
| COCCNc1cc(-c2cc3cnccc3c(N3CCNCC3)n2)ccn1 [Example 21, (2-Methoxyethyl)-[4-(1-piperazin-1-yl-[2,6]naphthyridin-3-yl)-pyridin-2-yl]amine] | 120 | 10 |  |
| COc1cccc(Nc2cc(-c3cc4cnccc4c(NCCO)n3)ccn2)c1 [Example 7] | 195 | 62 |  |
| c1cc2c(NC3CCCNC3)nc(-c3ccnc(NC4CCCCC4)c3)cc2cn1 (stereo not drawn) [Example 15, [3-(2-Cyclohexylaminopyridin-4-yl)-[2,6]naphthyridin-1-yl]piperidin-3-ylamine] | 102 | 19 |  |
| CN(C)CC1CCN(c2nc(-c3ccnc(NC4CCCCC4)c3)cc3cnccc23)CC1 [Example 12, Cyclohexyl-{4-[1-(4-dimethylaminomethylpiperidin-1-yl)-[2,6]naphthyridin-3-yl]pyridin-2-yl}amine] | 63 | 21 |  |
| O=C(NCCO)C1CCN(c2nc(-c3ccnc(NC4CCOCC4)c3)cc3cnccc23)CC1 [Example 16, 1-{3-[2-(Tetrahydropyran-4-ylamino)pyridin-4-yl]-[2,6]naphthyridin-1-yl}piperidine-4-carboxylic acid (2-hydroxyethyl)amide] |  | 2 | 11 |
| OCCNc1nc(-c2ccnc(NC3CCCCC3)c2)cc2cnccc12 [Example 5, 2-[3-(2-Cyclohexylaminopyridin-4-yl)-[2,6]naphthyridin-1-ylamino]ethanol] | 1370 | 339 |  |
| CC(C)Nc1cc(-c2cc3cnccc3c(NCCO)n2)ccn1 [Example 6, 2-[3-(2-Isopropylaminopyridin-4-yl)-[2,6]naphthyridin-1-ylamino]ethanol] | 497 | 120 |  |
| CC(=O)N1CCN(c2nc(-c3ccnc(NC4CCCCC4)c3)cc3cnccc23)CC1 [Example 11, 1-{4-[3-(2-Cyclohexylaminopyridin-4-yl)-[2,6]naphthyridin-1-yl]piperazin-1-yl}ethanone] | 137 | 23 |  |
| O=C(NC1CC1)C1CCN(c2nc(-c3ccnc(NC4CCOCC4)c3)cc3cnccc23)CC1 [Example 17, 1-{3-[2-(Tetrahydropyran-4-ylamino)pyridin-4-yl]-[2,6]naphthyridin-1-yl}piperidine-4-carboxylic acid cyclopropylamide] | 14 | 3 |  |
| CN(C)CCNc1nc(-c2ccnc(Nc3ccccc3)c2)cc2cnccc12 [Example 9, N,N-Dimethyl-N′-[3-(2-phenylaminopyridin-4-yl)-[2,6]naphthyridin-1-yl]-ethane-1,2-diamine] | 169 | 39 |  |
| NC(=O)C1CCN(c2nc(-c3ccnc(NC4CCCCC4)c3)cc3cnccc23)CC1 [Example 10, 1-[3-(2-Cyclohexylaminopyridin-4-yl)-[2,6]naphthyridin-1-yl]piperidine-4-carboxylic acid amide] |  | 83 | 414 |
| CCNC(=O)N1CCN(c2nc(-c3ccnc(Nc4ccn(C)n4)c3)cc3cnccc23)CC1 [Example 18, 4-{3-[2-(1-Methyl-1H-pyrazol-3-ylamino)pyridin-4-yl]-[2,6]naphthyridin-1-yl}piperazine-1-carboxylic acid ethylamide] | 127 | 30 |  |
| Cn1ccc(Nc2cc(-c3cc4cnccc4c(N4CCC5(CCNC5=O)CC4)n3)ccn2)n1 [Example 20, 8-{3-[2-(1-Methyl-1H-pyrazol-3-ylamino)pyridin-4-yl]-[2,6]naphthyridin-1-yl}-2,8-diaza-spiro[4.5]decan-1-one] | 59 | 9 |  |
| c1cc2c(N3CCNCC3)nc(-c3ccnc(NC4CCCCC4)c3)cc2cn1 [Example 3, Cyclohexyl-[4-(1-piperazin-1-yl-[2,6]naphthyridin-3-yl)pyridin-2-yl]amine] | 0.3 | 0.3 |  |
| c1ccc(Nc2cc(-c3cc4cnccc4c(N4CCNCC4)n3)ccn2)cc1 [Example 4, Phenyl-[4-(1-piperazin-1-yl-[2,6]naphthyridin-3-yl)pyridin-2-yl]amine] | 40 | 8 |  |
